From US20250205158A1, “BIODEGRADABLE LIPIDS AND FORMULATIONS FOR DELIVERY OF MRNA” (Massachusetts Institute of Technology, priority 2023, published 2025)
Where “and” joins values, the source holds several entries; their conditions need not be identical. Equal values may be shown once. Read-outs that look alike come from different tables or passages of the source.

Columns and labels:
[1] = Ethanol solubility of ionizable lipids; format: physicochemical
Source text: AMG lipids for enhanced mRNA delivery and improved tolerability.

mice = details: for protein expression relative to MD-1: in vitro and in vivo via intramuscular administration (FIGS. 6A-6B)
Description: Evaluation of the LNPs via intramuscular injection. The in vivo potency of the ionizable lipids was screened through intramuscular injection of LNPs loaded with mRNA encoding firefly luciferase protein. These LNPs were formulated with a molar composition of (35:16:46.5:2.5) using one of the synthesized ionizable lipids, DOPE as a helper lipid, cholesterol, and DMPE-PEG respectively. mRNA-loaded LNPs were intramuscularly administered in mice at a dose of 1 μg, and expression of luciferase protein was monitored at 6 hours via IVIS bioluminescent imaging (FIG. 3). […] Without wishing to be bound by theory, increased levels of protein expression may enhance the response to vaccination.
In Vitro and In Vivo Screening of AMG Lipid Library. Following synthesis, the mRNA delivery efficacy of the AMG lipids was evaluated through both in vitro and in vivo screens. To screen the first generation of AMG lipids (FIGS. 11B and 11C), firefly luciferase (FLuc) mRNA was encapsulated into LNPs using a previously reported formulation containing ionizable lipid, 1,2-dioleoyl-sn-glycero-3-phosphoethanolamine (DOPE), cholesterol, and 1,2-dimyristoyl-rac-glycero-3-methoxypolyethylene glycol-2000 (DMG-PEG).^19 C2C12 myoblast cells were treated with these LNPs and FLuc expression was evaluated at 24 hrs. (FIG. 16). […] Each of these batches was then injected IM into the quadriceps of mice, and expression was characterized via IVIS imaging (Screen 1, FIG. 11E).
AMG lipids for enhanced mRNA delivery and improved tolerability. A rational design approach was used to further vary the ionizable lipid structure to enhance the mRNA delivery and immunogenicity. […] The lipid tail structure was varied to promote efficient LNP self-assembly while simultaneously promoting endosomal membrane disruption.^18 Monounsaturated (G41-G44) or fully saturated (GC12-GC18) lipid tails were developed. […] Without wishing to be bound by any particular theory, tail length may impact membrane fusion and endosomal escape.^10,11
Next, the headgroup was further modified to further improve delivery. Headgroups play a multifunctional role including enhancing LNP-mRNA interactions, promoting membrane-LNP fusion and endosomal escape which all contribute to mRNA delivery.^23 A series of similar aza-crown ethers were used to further investigate structure-activity relationship and enhance mRNA delivery. These headgroups featured between three and eight nitrogens linked by varying length of methylene chains. Each of these headgroups were reacted with tail G41 to synthesize a next generation of AMG lipids, which were then formulated with FLuc mRNA and evaluated for mRNA delivery following IM administration in mice (FIG. 12B).

[2] = LNP characterization (diameter, PDI, % EE); format: physicochemical; details: LNP formulated with the named lipid; for Diameter (nm) / PDI: dynamic light scattering; for EE %: Ribogreen assay
Description: Representative LNP Characterization Data. The diameter, polydispersity index (PDI), and % EE were characterized for various LNPs.
LNP characterization. Concentration of mRNA was determined using a Quant-IT Ribogreen assay. LNPs were diluted in either native TE buffer (ThermoFisher) or denaturing TE buffer+0.5% Triton-X 100 (Millipore-Sigma) to measure the “free” and total mRNA, respectively. 100 μL of these unknowns were added to a black 96-well plate. Separately, standard curves ranging from 2 ng/μL-0 ng/μL were prepared in each of these buffers and 100 μL were added to the same 96-well plate. Finally, Quant-IT Ribogreen reagent (ThermoFisher) was diluted 1:200 in TE buffer and 100 μL of this solution was added to each of the wells. The well plate was then mixed at 400 rpm with a plate shaker for 5 mins. and the fluorescence was read with an excitation/emission of 485/535. LNPs were measured in triplicate and standards were measured in duplicate. RNA concentration in each of the unknown wells was calculated by fitting the standard curves with a linear trendline. Encapsulation efficiency (% EE) was calculated according to: […]
Dynamic light scattering and zeta potential measurements were performed using a Malvern Zetasizer system. The reported diameter and PDI were obtained from the cumulants fit of the autocorrelation function. Zeta potential measurements were performed in 0.1×PBS, pH 7.4 and calculated using the Smoluchowski approximation.

[3] = tissue not named
BALB/c mice = details: spike mRNA LNPs on day 0 and day 21, serum day 35
Description: Briefly, 6-8 week old BALB/c mice were vaccinated with 1 g of mRNA LNPs on day 0 and on day 21, and serum was collected on day 35 to characterize the antibody response to vaccination.
Immunization studies. […] All LNPs were injected IM in the quadricep with an injection volume of 50 μL with the doses specified in the main text. All vaccination experiments followed a prime-boost dosing regimen with doses given on day 0 and day 21. On day 35, mice were sacrificed, and blood was collected via cardiac puncture and their spleens were collected for further characterization.
Binding antibody ELISAs. […] Plates were coated overnight at 4° C. by adding 100 μL of a 1 μg/mL antigen solution in 100 mM carbonate buffer, pH 9.6 to each well. The coated plates were then washed with ELISA wash buffer (Biolegend) and blocked for 1 hr. at room temperature (RT) with 150 μL of 1% BSA in PBS. The plate was then washed again, and 100 μL of serially diluted serum samples were then added to the plate and incubated at RT for 1 hr. Next, the plate was washed and the secondary goat anti-mouse IgG, HRP antibody (ThermoFisher) was diluted 1:3,000. 100 μL of this solution added to each well an incubated at RT for 1 hr. After incubation, the plate was washed and 100 μL of TMB chromogen solution (ThermoFisher) was added to each well and incubated for 30 mins. Finally, the HRP reaction was stopped by the addition of 100 μL of 0.5 M H2SO4. The absorbance of each well was immediately read at 450 nm with 600 nm as a reference using an Infinite M200 Pro (Tecan) plate reader. The resultant data were then fit with a 4-PL sigmodal curve and the endpoint titers were taken as the point at which this curve crossed four times the absorbance of the blank wells.

SMILES	Diameter (nm) [2] [nm]	PDI [2]	EE % [2] [%]	protein expression relative to MD-1 (mice)	other results
CCCCCCCCCCCCCC(=O)OCC(O)CN1CCCN(CC(O)COC(=O)CCCCCCCCCCCCC)CCN(CC(O)COC(=O)CCCCCCCCCCCCC)CCCN(CC(O)COC(=O)CCCCCCCCCCCCC)CC1 (mixture of isomers) [AMG10C14]					ethanol solubility [1]: poor ethanol solubility
CCCCCCCCCCCCCCCC(=O)OCC(O)CN1CCCN(CC(O)COC(=O)CCCCCCCCCCCCCCC)CCN(CC(O)COC(=O)CCCCCCCCCCCCCCC)CCCN(CC(O)COC(=O)CCCCCCCCCCCCCCC)CC1 (mixture of isomers) [AMG10C16]					ethanol solubility [1]: poor ethanol solubility
CCCCCCCCC=CCCCCCCCC(=O)OCC(O)CN1CCCN(CC(O)COC(=O)CCCCCCCC=CCCCCCCCC)CCN(CC(O)COC(=O)CCCCCCCC=CCCCCCCCC)CCCN(CC(O)COC(=O)CCCCCCCC=CCCCCCCCC)CC1 (mixture of isomers) [AMG104]					fold higher mRNA expression than the next best lipid AMG1010 (mice; Screen 3, IM, 1 μg, imaged 24 hours post injection): ~5 fold
CCCCCC/C=C\CCCC(=O)OCC(O)CN1CCCN(CC(O)COC(=O)CCC/C=C\CCCCCC)CCN(CC(O)COC(=O)CCC/C=C\CCCCCC)CCCN(CC(O)COC(=O)CCC/C=C\CCCCCC)CC1 (centres unmarked) [AMG1041]	81.79	0.113			fold higher expression than AMG104 (mice; IM, tail derivatives, 5 μg, 24 hours): ~3 fold; [AMG1041] ng/g tissue ([3]; Time 0 hrs): 0 ng/g tissue; [AMG1041] ng/g tissue ([3]; Time 1 hrs): 32200 ng/g tissue and 24800 ng/g tissue and 28000 ng/g tissue; [AMG1041] ng/g tissue ([3]; Time 2 hrs): 14000 ng/g tissue and 23400 ng/g tissue and 20400 ng/g tissue; [AMG1041] ng/g tissue ([3]; Time 4 hrs): 17200 ng/g tissue and 12600 ng/g tissue and 9400 ng/g tissue; [AMG1041] ng/g tissue ([3]; Time 8 hrs): 4800 ng/g tissue and 8000 ng/g tissue; [AMG1041] ng/g tissue ([3]; Time 24 hrs): 600 ng/g tissue; antibody titers after vaccination (BALB/c mice): high levels of antibody titers
CCCCCC/C=C\CCCCCCCC(=O)OCC(O)CN1CCCN(CC(O)COC(=O)CCCCCCC/C=C\CCCCCC)CCN(CC(O)COC(=O)CCCCCCC/C=C\CCCCCC)CCCN(CC(O)COC(=O)CCCCCCC/C=C\CCCCCC)CC1 (centres unmarked) [AMG1043]	79.27	0.169			
CCCCC/C=C\CCCCC(=O)OCC(O)CN1CCN(CC(O)COC(=O)CCCC/C=C\CCCCC)CCN(CC(O)COC(=O)CCCC/C=C\CCCCC)CCN(CC(O)COC(=O)CCCC/C=C\CCCCC)CCN(CC(O)COC(=O)CCCC/C=C\CCCCC)CCN(CC(O)COC(=O)CCCC/C=C\CCCCC)CC1 (centres unmarked) [AMG1547]	100	0.142	85.33	superseded or matched MD-1	
CCCC/C=C\CCCCCC(=O)OCC(O)CN1CCN(CC(O)COC(=O)CCCCC/C=C\CCCC)CCN(CC(O)COC(=O)CCCCC/C=C\CCCC)CCN(CC(O)COC(=O)CCCCC/C=C\CCCC)CCN(CC(O)COC(=O)CCCCC/C=C\CCCC)CCN(CC(O)COC(=O)CCCCC/C=C\CCCC)CC1 (centres unmarked) [AMG1548]	104.7	0.106	54.6	superseded or matched MD-1	
CCC/C=C\CCCCCCC(=O)OCC(O)CN1CCN(CC(O)COC(=O)CCCCCC/C=C\CCC)CCN(CC(O)COC(=O)CCCCCC/C=C\CCC)CCN(CC(O)COC(=O)CCCCCC/C=C\CCC)CCN(CC(O)COC(=O)CCCCCC/C=C\CCC)CCN(CC(O)COC(=O)CCCCCC/C=C\CCC)CC1 (centres unmarked) [AMG1549]	100.4	0.234	56.9	superseded or matched MD-1	
CC/C=C\CCCCCCCC(=O)OCC(O)CN1CCN(CC(O)COC(=O)CCCCCCC/C=C\CC)CCN(CC(O)COC(=O)CCCCCCC/C=C\CC)CCN(CC(O)COC(=O)CCCCCCC/C=C\CC)CCN(CC(O)COC(=O)CCCCCCC/C=C\CC)CCN(CC(O)COC(=O)CCCCCCC/C=C\CC)CC1 (centres unmarked) [AMG1550]	93	0.119	78.09	superseded or matched MD-1	
C/C=C\CCCCCCCCC(=O)OCC(O)CN1CCN(CC(O)COC(=O)CCCCCCCC/C=C\C)CCN(CC(O)COC(=O)CCCCCCCC/C=C\C)CCN(CC(O)COC(=O)CCCCCCCC/C=C\C)CCN(CC(O)COC(=O)CCCCCCCC/C=C\C)CCN(CC(O)COC(=O)CCCCCCCC/C=C\C)CC1 (centres unmarked) [AMG1551]	77	0.145	67.41		in vivo mRNA delivery of alkene walking tail derivatives (mice; IM, 0.1 μg, 6 hours): loss in potency
CCCC/C=C\C/C=C\CCC(=O)OCC(O)CN1CCN(CC(O)COC(=O)CC/C=C\C/C=C\CCCC)CCN(CC(O)COC(=O)CC/C=C\C/C=C\CCCC)CCN(CC(O)COC(=O)CC/C=C\C/C=C\CCCC)CCN(CC(O)COC(=O)CC/C=C\C/C=C\CCCC)CCN(CC(O)COC(=O)CC/C=C\C/C=C\CCCC)CC1 (centres unmarked) [AMG1553]	94	0.09	89.0186	superseded or matched MD-1	
CCC/C=C\C/C=C\CCCC(=O)OCC(O)CN1CCN(CC(O)COC(=O)CCC/C=C\C/C=C\CCC)CCN(CC(O)COC(=O)CCC/C=C\C/C=C\CCC)CCN(CC(O)COC(=O)CCC/C=C\C/C=C\CCC)CCN(CC(O)COC(=O)CCC/C=C\C/C=C\CCC)CCN(CC(O)COC(=O)CCC/C=C\C/C=C\CCC)CC1 (centres unmarked) [AMG1554]	105	0.1	91.711	superseded or matched MD-1	
CC/C=C\C/C=C\CCCCC(=O)OCC(O)CN1CCN(CC(O)COC(=O)CCCC/C=C\C/C=C\CC)CCN(CC(O)COC(=O)CCCC/C=C\C/C=C\CC)CCN(CC(O)COC(=O)CCCC/C=C\C/C=C\CC)CCN(CC(O)COC(=O)CCCC/C=C\C/C=C\CC)CCN(CC(O)COC(=O)CCCC/C=C\C/C=C\CC)CC1 (centres unmarked) [AMG1555]	83	0.077	88.37	superseded or matched MD-1	
C/C=C\C/C=C\CCCCCC(=O)OCC(O)CN1CCN(CC(O)COC(=O)CCCCC/C=C\C/C=C\C)CCN(CC(O)COC(=O)CCCCC/C=C\C/C=C\C)CCN(CC(O)COC(=O)CCCCC/C=C\C/C=C\C)CCN(CC(O)COC(=O)CCCCC/C=C\C/C=C\C)CCN(CC(O)COC(=O)CCCCC/C=C\C/C=C\C)CC1 (centres unmarked) [AMG1556]	96	0.121	85.76	superseded or matched MD-1	
CCCCCC/C=C\CCCCOC(=O)CCN1CCN(CCC(=O)OCCCC/C=C\CCCCCC)CCN(CCC(=O)OCCCC/C=C\CCCCCC)CCN(CCC(=O)OCCCC/C=C\CCCCCC)CCN(CCC(=O)OCCCC/C=C\CCCCCC)CCN(CCC(=O)OCCCC/C=C\CCCCCC)CC1 [AMG1559]					fold drop in transfection versus AMG1541 (mice; IM, analogue without β-amino alcohol): 34 fold
CCCCCC/C=C\CCCC(=O)OCC(O)CN1CCN(CC(O)COC(=O)CCC/C=C\CCCCCC)CCN(CC(O)COC(=O)CCC/C=C\CCCCCC)CCN(CC(O)COC(=O)CCC/C=C\CCCCCC)CCN(CC(O)COC(=O)CCC/C=C\CCCCCC)CCN(CC(O)COC(=O)CCC/C=C\CCCCCC)CCN(CC(O)COC(=O)CCC/C=C\CCCCCC)CC1 (centres unmarked) [AMG1741]	88	0.156	82.99		antibody titers after vaccination (BALB/c mice): high levels of antibody titers
